Measurements as given in publication PMC4402028 (Journal of Clinical Pharmacology, 2015).
Values joined by “and” are separate entries in the source; they are usually repeats but may differ in a detail not shown here. Identical values can stand only once. Like-named read-outs stand apart in the source and are kept apart here.

Columns and labels:
MRP2 [1] = settings: in vitro; ref data on file at Furiex; cited from earlier work
[2] = humans; single 300 mg radiolabeled dose; ref data on file at Furiex; cited from earlier work
OATP1B3 [3] = settings: in vitro; ref data on file at Furiex; cited from earlier work
[4] = Semiphysiological integrated PK/ADME model; set-up: species or system human; settings: for clearance: oral
[5] = plasma protein binding; model input, source not stated; cited from earlier work
CYP-450s = settings: in vitro; ref data on file at Furiex; cited from earlier work
[6] = type: in vivo, human; settings: for AUC(0–inf), Ratio (%) of Geometric LS Means: all profiles with estimable elimination rates; for CL renal: plasma and urine, CLr; for Vd/F: Vz/F
OAT1 [7] = settings: in vitro; ref data on file at Furiex; cited from earlier work
P-gp = settings: in vitro; ref data on file at Furiex; cited from earlier work
[8] = Cynos; IV 10 mg/kg; ref Furiex Studies DD7393, FK10138, FK10141, and FK10142; cited from earlier work
[9] = Allometric PK scaling of CLTOT to human
OAT3 = settings: in vitro; ref data on file at Furiex; cited from earlier work
[10] = Rat; IV 10 mg/kg; ref Furiex Studies DD7393, FK10138, FK10141, and FK10142; cited from earlier work
BCRP [11] = settings: in vitro; ref data on file at Furiex; cited from earlier work
BSEP = settings: in vitro; ref data on file at Furiex; cited from earlier work
OCT1 [12] = settings: in vitro; ref data on file at Furiex; cited from earlier work
OCT2 [13] = settings: in vitro; ref data on file at Furiex; cited from earlier work
Safety and tolerability = type: in vivo, human
OCT1 [14] = settings: in vitro; ref data on file at Furiex; cited from earlier work; remark: listed apart in the source
[15] = Rhesus; IV 3.2 mg/kg; ref Furiex Studies DD7393, FK10138, FK10141, and FK10142; cited from earlier work
OCT2 [16] = settings: in vitro; ref data on file at Furiex; cited from earlier work; remark: listed apart in the source
OATP1B3 [17] = settings: in vitro; ref data on file at Furiex; cited from earlier work; remark: listed apart in the source
OAT1 [18] = settings: in vitro; ref data on file at Furiex; cited from earlier work; remark: listed apart in the source
[19] = ref data on file at Furiex; cited from earlier work
BCRP [20] = settings: in vitro; ref data on file at Furiex; cited from earlier work; remark: listed apart in the source
Caco2 cell-line = settings: ref data on file at Furiex; cited from earlier work
[21] = in vitro or in vivo, except slow formation of a glucuronide found in human urine after 1,000 mg oral dose; ref data on file at Furiex; cited from earlier work
MRP2 [22] = settings: in vitro; ref data on file at Furiex; cited from earlier work; remark: listed apart in the source
[23] = Dog; IV 2 mg/kg; ref Furiex Studies DD7393, FK10138, FK10141, and FK10142; cited from earlier work
MRP2 [24] = settings: read-out: Ki for MRP2; cited from earlier work
[25] = human, reference case without inhibitor, estimated
[26] = in the presence of cyclosporine
[27] = both, human, plasma, oral, eluxadoline 100 mg plus cyclosporine 600 mg, arithmetic mean (CV), n = 19
[28] = both, human, plasma, oral, eluxadoline 100 mg plus probenecid 500 mg, arithmetic mean (CV), n = 20
[29] = coadministered with probenecid vs eluxadoline alone

Which results are given for `COc1ccc(CN(C(=O)[C@@H](N)Cc2c(C)cc(C(N)=O)cc2C)[C@@H](C)c2ncc(-c3ccccc3)[nH]2)cc1C(=O)O` [eluxadoline]?
MRP2-dependent vesicular accumulation (MRP2 [1]): substrate of MRP2; circulating metabolites [2]: no circulating metabolites were detected; inhibition of OATP1B3-mediated transport of probe substrates (OATP1B3 [3]): did not inhibit; PK-ADME-model-predicted AUC(0–inf) ([4]; eluxadoline alone): 17.8 ng·h/mL; renal excretion as share of overall elimination ([4]; human): 12%; clearance ([4]; human, plasma, 200 mg, biliary clearance (CLbil), without inhibitor, estimated): 832 mL/min; clearance ([4]; human, plasma, 200 mg, net tubular secretion clearance CLTS, without inhibitor, estimated): 459 mL/min; bioavailability ([4]; human, plasma, po, 200 mg): 1.02%; FGI (extent of GI absorption/GI permeability) [4, 25]: 2.3%; hepatic extraction ratio (ERhep) [4, 25]: 55.8%; intrinsic biliary CLint ([4]; human, without inhibitor, estimated): 9,370 mL/min; CLbil [4, 26]: 296 mL/min; Foral [4, 26]: 1.82%; reduction of CLTS [4, 26]: 24%; reduction of biliary CLint [4, 26]: 71%; CLbil ([4]; in the presence of probenecid): 750 mL/min; Foral ([4]; in the presence of probenecid): 1.15%; reduction of CLTS ([4]; in the presence of probenecid): 52%; reduction of biliary CLint ([4]; in the presence of probenecid): 21%; PK-ADME-model-predicted AUC(0–inf) ([4]; with cyclosporine): 78.3 ng·h/mL; model-predicted CLren ([4]; with cyclosporine): 92 mL/min; PK-ADME-model-predicted AUC(0–inf) ([4]; with probenecid): 23.6 ng·h/mL; model-predicted CLren ([4]; with probenecid): 62 mL/min; fu (unbound fraction of drug in plasma) [5]: 19%; inhibition or induction of CYP-450s (CYP-450s): no inhibition or induction; Cmax, Ratio (%) of Geometric LS Means ([6]; B/A: with cyclosporine 600 mg vs eluxadoline alone): 6.18%; AUC(0–inf), Ratio (%) of Geometric LS Means ([6]; B/A: with cyclosporine vs alone): 4.25%; Cmax, Ratio (%) of Geometric LS Means ([6]; C/A: with probenecid 500 mg vs eluxadoline alone): 1.31%; AUC(0–inf), Ratio (%) of Geometric LS Means ([6]; C/A: with probenecid vs alone): 1.48%; CL renal ([6]; both, human, oral, eluxadoline 100 mg plus cyclosporine 600 mg, arithmetic mean (CV)): 96.7 mL/min; CL renal ([6]; both, human, oral, eluxadoline 100 mg plus probenecid 500 mg, arithmetic mean (CV)): 61.7 mL/min; Tmax ([6]; both, human, plasma, oral, 100 mg): 2.1 h; AUC(0-inf) ([6]; both, human, plasma, oral, 100 mg, Geometric LS Means, Treatment A, all profiles with estimable elimination rates (N 20)): 14.7 ng·h/mL; AUC(0-inf) ([6]; both, human, plasma, oral, 100 mg, Geometric LS Means, Treatment A, only subjects with estimable elimination rates for all 3 treatments (N 7)): 15.7 ng·h/mL; AUC(0-inf) ([6]; both, human, plasma, oral, Geometric LS Means, Treatment B (+ cyclosporine 600 mg), all profiles with estimable elimination rates (N 19)): 62.6 ng·h/mL; AUC(0-inf) ([6]; both, human, plasma, oral, Geometric LS Means, Treatment B (+ cyclosporine 600 mg), only subjects with estimable elimination rates for all 3 treatments (N 7)): 79.9 ng·h/mL; AUC(0-inf) ([6]; both, human, plasma, oral, Geometric LS Means, Treatment C (+ probenecid 500 mg), all profiles with estimable elimination rates (N 20)): 21.8 ng·h/mL; AUC(0-inf) ([6]; both, human, plasma, oral, Geometric LS Means, Treatment C (+ probenecid 500 mg), only subjects with estimable elimination rates for all 3 treatments (N 7)): 20.4 ng·h/mL; AUC(0-inf) [6, 27]: 75.3 ng·h/mL; AUC(0-inf) [6, 28]: 23 ng·h/mL; Cmax ([6]; both, human, plasma, oral, eluxadoline 100 mg plus cyclosporine 600 mg, arithmetic mean (CV), N = 30): 20.9 ng/mL; Cmax ([6]; both, human, plasma, oral, eluxadoline 100 mg plus probenecid 500 mg, arithmetic mean (CV), N = 29): 3.6 ng/mL; Vd/F [6, 27]: 20700 L; Vd/F [6, 28]: 37100 L; half-life ([6]; both, human, plasma, oral, t1/2, eluxadoline 100 mg plus cyclosporine 600 mg, arithmetic mean (CV), n = 19): 7.4 h; half-life ([6]; both, human, plasma, oral, t1/2, eluxadoline 100 mg plus probenecid 500 mg, arithmetic mean (CV), n = 20): 5.1 h; effect on renal clearance (CLren) of eluxadoline ([6]; by cyclosporine): little effect; reduction of renal clearance (CLren) ([6]; by probenecid): ~50%; increase in AUC(0–inf), geometric mean ratio ([6]; coadministered with cyclosporine vs alone, subjects with estimable elimination rates for all 3 treatments): 5.1 fold; increase in peak exposure (Cmax) ([6]; coadministered with cyclosporine vs eluxadoline alone): 6.2 fold; increase in peak exposure (Cmax) [6, 29]: 1.3 fold and 1.31 fold; increase in systemic/total exposure [AUC(0–inf)] [6, 29]: 1.30 fold and 1.3 fold; CLren, mean (CV%) ([6]; eluxadoline 100 mg alone): 116 (20%) mL/min and 116 mL/min; %Fe(0–72), cumulative urinary excretion over 72 hours as fraction of the dose ([6]; eluxadoline 100 mg alone, arithmetic mean (CV)): 0.12%; %Fe(0–72), cumulative urinary excretion over 72 hours as fraction of the dose ([6]; eluxadoline 100 mg alone, arithmetic mean (CV), listed as Eluxadoline): 0.12 (52) %; CL/F ([6]; eluxadoline 100 mg alone, arithmetic mean (CV), n = 20): 7550 (54) L/h; %Fe(0–72), cumulative urinary excretion over 72 hours as fraction of the dose ([6]; eluxadoline 100 mg plus cyclosporine 600 mg, arithmetic mean (CV)): 0.46%; CL/F ([6]; eluxadoline 100 mg plus cyclosporine 600 mg, arithmetic mean (CV), n = 19): 1943 (69) L/h; %Fe(0–72), cumulative urinary excretion over 72 hours as fraction of the dose ([6]; eluxadoline 100 mg plus probenecid 500 mg, arithmetic mean (CV)): 0.08%; %Fe(0–72), cumulative urinary excretion over 72 hours as fraction of the dose ([6]; eluxadoline 100 mg plus probenecid 500 mg, arithmetic mean (CV), listed as Eluxadoline): 0.08 (39) %; CL/F ([6]; eluxadoline 100 mg plus probenecid 500 mg, arithmetic mean (CV), n = 20): 5645 (53) L/h; Tmax ([6]; eluxadoline 100 mg plus probenecid 500 mg, median (minimum, maximum)): 2.5 (0.25, 6.0) hours; CLren, mean (CV%) ([6]; in the presence of cyclosporine 600 mg): 97 (19%) mL/min and 97 mL/min; CLren, mean (CV%) ([6]; in the presence of probenecid 500 mg): 62 (25%) mL/min and 62 mL/min; fraction of the eluxadoline dose excreted in urine unchanged (%Fe) ([6]; with or without cyclosporine and probenecid): less than 1%; inhibition of OAT1-mediated transport of probe substrates (OAT1 [7]): did not inhibit; transport by P-gp (P-gp): not to be transported; CLtot [8]: 18.54 mL/min/kg; t½ [8]: 3.73 h; clearance [9]: 12.6 mL/min/kg and 949 mL/min; inhibition of OAT3-mediated transport of probe substrates (OAT3): did not inhibit; CLtot [10]: 44.4 mL/min/kg; t½ [10]: 0.8 h; inhibition of BCRP-mediated transport of probe substrates (BCRP [11]): did not inhibit; inhibition of BSEP-mediated transport of probe substrates (BSEP): did not inhibit; transport by OCT1 (OCT1 [12]): not to be transported; inhibition of OCT2-mediated transport of probe substrates (OCT2 [13]): did not inhibit; nausea (Safety and tolerability; after eluxadoline alone): not reported; subjects reporting gastrointestinal AEs (Safety and tolerability; after eluxadoline alone (1 subject)): 3%; subjects reporting AEs (Safety and tolerability; after eluxadoline alone (2 subjects)): 7%; subjects reporting nausea (Safety and tolerability; after eluxadoline combined with cyclosporine (3 subjects)): 10.0%; subjects reporting gastrointestinal AEs (Safety and tolerability; after eluxadoline combined with probenecid (2 subjects)): 7%; subjects reporting gastrointestinal AEs (Safety and tolerability; after eluxadoline in combination with cyclosporine (4 subjects)): 13%; subjects reporting AEs (Safety and tolerability; after eluxadoline in combination with cyclosporine (6 subjects)): 20%; subjects reporting nausea (Safety and tolerability; after eluxadoline with probenecid (1 subject)): 3%; inhibition of OCT1-mediated transport of probe substrates (OCT1 [14]): did not inhibit; CLtot [15]: 28.5 mL/min/kg; t½ [15]: 0.65 h; transport by OCT2 (OCT2 [16]): not to be transported; transport by OATP1B3 (OATP1B3 [17]): not to be transported; transport by OAT1 (OAT1 [18]): not to be transported; GI solubility [19]: high; transport by BCRP (BCRP [20]): not to be transported; Caco2 cell-line permeability (Caco2 cell-line): poor; hepatic drug metabolism [21]: absence of hepatic drug metabolism; inhibition of MRP2-mediated transport of probe substrates (MRP2 [22]): did not inhibit; CLtot [23]: 19.92 mL/min/kg; t½ [23]: 0.75 h

For `CCCN(CCC)S(=O)(=O)c1ccc(C(=O)O)cc1` [probenecid], which Ki (MRP2 [24]) is on record?
Its Ki is 44.6 µM.
